Measured values reported in patent US20190248779A1, “COMPOUNDS, COMPOSITIONS, AND METHODS FOR INCREASING CFTR ACTIVITY” (Proteostasis Therapeutics, Inc., priority 2016, published 2019).

Target: T1, ΔF508-CFTR (Homo sapiens, UniProt P13569, DEL508-508)
T1 construct: Primary lung epithelial cells homozygous for the Cystic Fibrosis-causing ΔF508 mutation were differentiated for a minimum of 4 weeks; endogenous in cells; host or cells: primary lung (bronchial) epithelial cells (hBE) homozygous for ΔF508, differentiated at an air-liquid interface
T1 sequence (P13569 with tags, fused parts or gaps DEL508-508): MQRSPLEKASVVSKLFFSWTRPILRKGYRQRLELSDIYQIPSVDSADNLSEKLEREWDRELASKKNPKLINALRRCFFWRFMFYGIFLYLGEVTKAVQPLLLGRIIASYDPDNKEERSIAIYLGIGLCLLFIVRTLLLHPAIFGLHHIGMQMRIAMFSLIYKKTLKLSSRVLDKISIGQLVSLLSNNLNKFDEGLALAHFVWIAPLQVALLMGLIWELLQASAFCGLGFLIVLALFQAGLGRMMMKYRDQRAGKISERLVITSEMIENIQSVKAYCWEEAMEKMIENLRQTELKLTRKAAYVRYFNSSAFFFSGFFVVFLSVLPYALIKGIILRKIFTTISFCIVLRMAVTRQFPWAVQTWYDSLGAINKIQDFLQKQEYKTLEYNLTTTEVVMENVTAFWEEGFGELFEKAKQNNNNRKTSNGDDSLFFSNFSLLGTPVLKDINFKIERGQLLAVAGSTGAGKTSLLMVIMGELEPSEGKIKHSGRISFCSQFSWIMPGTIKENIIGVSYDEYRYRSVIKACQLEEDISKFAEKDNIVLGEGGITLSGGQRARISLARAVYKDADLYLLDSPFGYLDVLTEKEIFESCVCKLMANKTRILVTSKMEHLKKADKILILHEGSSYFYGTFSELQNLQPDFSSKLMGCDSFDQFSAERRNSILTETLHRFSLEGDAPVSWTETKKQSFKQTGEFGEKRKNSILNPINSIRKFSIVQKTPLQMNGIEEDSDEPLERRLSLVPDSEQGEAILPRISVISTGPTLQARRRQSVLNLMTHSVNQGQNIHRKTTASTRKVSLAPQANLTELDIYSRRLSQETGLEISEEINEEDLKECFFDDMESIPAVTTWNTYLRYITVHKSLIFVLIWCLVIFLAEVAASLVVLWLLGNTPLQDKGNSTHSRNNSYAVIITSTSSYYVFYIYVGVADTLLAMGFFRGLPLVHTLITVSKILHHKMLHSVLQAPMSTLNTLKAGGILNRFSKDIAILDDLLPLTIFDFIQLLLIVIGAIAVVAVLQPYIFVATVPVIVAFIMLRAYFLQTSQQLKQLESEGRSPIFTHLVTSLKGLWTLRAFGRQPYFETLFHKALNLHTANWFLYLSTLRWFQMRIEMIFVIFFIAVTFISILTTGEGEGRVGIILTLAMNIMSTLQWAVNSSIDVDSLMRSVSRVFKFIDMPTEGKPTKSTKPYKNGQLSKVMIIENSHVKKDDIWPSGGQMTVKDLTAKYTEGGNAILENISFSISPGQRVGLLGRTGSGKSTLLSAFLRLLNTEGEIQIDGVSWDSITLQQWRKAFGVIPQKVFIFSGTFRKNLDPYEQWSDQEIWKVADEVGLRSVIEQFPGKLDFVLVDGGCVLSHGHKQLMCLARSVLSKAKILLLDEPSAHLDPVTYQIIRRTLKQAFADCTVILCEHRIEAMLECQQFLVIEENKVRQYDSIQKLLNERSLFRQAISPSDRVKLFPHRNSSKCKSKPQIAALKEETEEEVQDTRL
Experiment: hBE equivalent current (Ieq) assay
Assay type: cell-based
Details: 24 h, relative to a CFTR amplifier at 3 uM, AUC of equivalent chloride current, primary lung epithelial cells homozygous for ΔF508; for Activity 3 μM: compound at 3 μM; for Activity 10 μM: compound at 10 μM
Method: ii. hBE Equivalent Current (Ieq) Assay
Primary lung epithelial cells homozygous for the Cystic Fibrosis-causing ΔF508 mutation were differentiated for a minimum of 4 weeks in an air-liquid interface on Costar 24 well HTS filter plates prior to the equivalent current (Ieq) measurements. Cells were apically mucus-washed for 30 minutes 24 h prior to treatment with compounds. The basolateral media was removed and replaced with media containing the compound of interest diluted to its final concentration from DMSO stocks. Treated cells were incubated at 37° C. and 5% CO2 for 24 hours. At the end of the treatment period, the media was changed to the Ieq experimental solution for 2 hours before the experiment and plates are maintained in a CO2-free incubator during this period. The plates containing the cells were then placed in pre-warmed heating blocks at 36° C.±0.5 for 15 minutes before measurements are taken. The transepithelial voltage (VT) and conductance (GT) were measured using a custom 24 channel current clamp (TECC-24) with 24 well electrode manifold. The Ieq assay measurements were made following additions with standardized time periods:
1. The baseline VT and GT values were measured for approximately 20 minutes.
2. Benzamil was added to block ENaC for 15 minutes.
3. Forskolin plus VX-770 were added to maximally activate ΔF508-CFTR for 27 minutes.
4. Bumetanide was added to inhibit the NaK2Cl cotransporter and shut-off secretion of chloride.
The activity data captured was the area under the curve (AUC) for the traces of the equivalent chloride current. The AUC was collected from the time of the forskolin/VX-770 addition until the inhibition by bumetanide addition. Correction in response to compound treatment was scored as the increase in the AUC for compound-treated samples over that of vehicle-treated samples.
The results are shown below in Table 1. + indicates activity <150% of a CFTR amplifier with compound at concentration shown and amplifier at 3 uM; ++ indicates activity >150% of a CFTR amplifier with compound at concentration shown and amplifier at 3 uM.

| SMILES | Activity 3 μM | Activity 10 μM |
| --- | --- | --- |
| COc1cccc(-c2ccc(=O)n(C(C)C(=O)Nc3ccc4cc[nH]c4c3)n2)c1 (stereo not shown) [Compound 2, N-(1H-Indol-6-yl)-2-[3-(3-methoxyphenyl)-6-oxo-1,6-dihydropyridazin-1-yl]propanamide] | + (activity <150% of a CFTR amplifier with compound at concentration shown and amplifier at 3 uM) | + (activity <150% of a CFTR amplifier with compound at concentration shown and amplifier at 3 uM) |
| COc1cccc(-c2ccc(=O)n(C(C)C(=O)Nc3ccc4[nH]ccc4c3)n2)c1 (stereo not shown) [Compound 3, N-(1H-Indol-5-yl)-2-(3-(3-methoxyphenyl)-6-oxopyridazin-1(6H)-yl)propanamide] | + (activity <150% of a CFTR amplifier with compound at concentration shown and amplifier at 3 uM) | + (activity <150% of a CFTR amplifier with compound at concentration shown and amplifier at 3 uM) |
| COc1cccc(-c2ccc(=O)n(C(C)C(=O)NC3CCCCC3)n2)c1 (stereo not shown) [Compound 4, N-Cyclohexyl-2-(3-(3-methoxyphenyl)-6-oxopyridazin-1(6H)-yl)propanamide] | + (activity <150% of a CFTR amplifier with compound at concentration shown and amplifier at 3 uM) | + (activity <150% of a CFTR amplifier with compound at concentration shown and amplifier at 3 uM) |
| COc1cccc(-c2ccc(=O)n(C(C)C(=O)Nc3ccccn3)n2)c1 (stereo not shown) [Compound 5, 2-(3-(3-Methoxyphenyl)-6-oxopyridazin-1(6H)-yl)-N-(pyridin-2-yl)propanamide] | + (activity <150% of a CFTR amplifier with compound at concentration shown and amplifier at 3 uM) | + (activity <150% of a CFTR amplifier with compound at concentration shown and amplifier at 3 uM) |
| COc1cccc(-c2ccc(=O)n(C(C)C(=O)Nc3cccnc3)n2)c1 (stereo not shown) [Compound 6, 2-(3-(3-Methoxyphenyl)-6-oxopyridazin-1(6H)-yl)-N-(pyridin-3-yl)propanamide] | + (activity <150% of a CFTR amplifier with compound at concentration shown and amplifier at 3 uM) | + (activity <150% of a CFTR amplifier with compound at concentration shown and amplifier at 3 uM) |
| CC(C(=O)Nc1cc(F)cc(F)c1)n1nc(-c2ccc3cc[nH]c3c2)ccc1=O (stereo not shown) [Compound 7, 2-(3-(1H-Indol-6-yl)-6-oxopyridazin-1(6H)-yl)-N-(3,5-difluorophenyl)propanamide] | + (activity <150% of a CFTR amplifier with compound at concentration shown and amplifier at 3 uM) | + (activity <150% of a CFTR amplifier with compound at concentration shown and amplifier at 3 uM) |
| COc1cccc(-c2ccc(=O)n(C(C)C(=O)Nc3ccc(C(F)(F)F)cn3)n2)c1 (stereo not shown) [Compound 8, 2-[3-(3-Methoxyphenyl)-6-oxo-1,6-dihydropyridazin-1-yl]-N-[5-(trifluoromethyl)pyridin-2-yl]propanamide] | ++ (activity >150% of a CFTR amplifier with compound at concentration shown and amplifier at 3 uM) | ++ (activity >150% of a CFTR amplifier with compound at concentration shown and amplifier at 3 uM) |
| COc1cccc(-c2ccc(=O)n(C(C)C(=O)Nc3ccc(C(F)(F)F)nc3)n2)c1 (stereo not shown) [Compound 9, 2-(3-(3-Methoxyphenyl)-6-oxopyridazin-1(6H)-yl)-N-(6-(trifluoromethyl)pyridin-3-yl)propanamide] | ++ (activity >150% of a CFTR amplifier with compound at concentration shown and amplifier at 3 uM) | + (activity <150% of a CFTR amplifier with compound at concentration shown and amplifier at 3 uM) |
| COc1cccc(-c2ccc(=O)n(C(C)C(=O)Nc3cccc(C(F)(F)F)n3)n2)c1 (stereo not shown) [Compound 10, 2-(3-(3-Methoxyphenyl)-6-oxopyridazin-1(6H)-yl)-N-(6-(trifluoromethyl)pyridin-2-yl)propanamide] | ++ (activity >150% of a CFTR amplifier with compound at concentration shown and amplifier at 3 uM) | ++ (activity >150% of a CFTR amplifier with compound at concentration shown and amplifier at 3 uM) |
| COc1cccc(-c2ccc(=O)n(C(C)C(=O)Nc3cc(C(F)(F)F)ccn3)n2)c1 (stereo not shown) [Compound 11, 2-(3-(3-Methoxyphenyl)-6-oxopyridazin-1(6H)-yl)-N-(4-(trifluoromethyl)pyridin-2-yl)propanamide] | ++ (activity >150% of a CFTR amplifier with compound at concentration shown and amplifier at 3 uM) | ++ (activity >150% of a CFTR amplifier with compound at concentration shown and amplifier at 3 uM) |
| COc1cccc(-c2ccc(=O)n(C(C)C(=O)Nc3cncc(C(F)(F)F)c3)n2)c1 (stereo not shown) [Compound 12, 2-(3-(3-Methoxyphenyl)-6-oxopyridazin-1(6H)-yl)-N-(5-(trifluoromethyl)pyridin-3-yl)propanamide] | + (activity <150% of a CFTR amplifier with compound at concentration shown and amplifier at 3 uM) | + (activity <150% of a CFTR amplifier with compound at concentration shown and amplifier at 3 uM) |
| CC(C(=O)Nc1ccc(C(F)(F)F)cc1)n1nc(-c2cccs2)ccc1=O (stereo not shown) [Compound 13, 2-[6-oxo-3-(thiophen-2-yl)-1,6-dihydropyridazin-1-yl]-N-[4-(trifluoromethyl)phenyl]propanamide] | ++ (activity >150% of a CFTR amplifier with compound at concentration shown and amplifier at 3 uM) | + (activity <150% of a CFTR amplifier with compound at concentration shown and amplifier at 3 uM) |
| CC(C(=O)Nc1ccc(C(F)(F)F)cc1)n1nc(-c2ccc(Cl)s2)ccc1=O (stereo not shown) [Compound 14, 2-(3-(5-Chlorothiophen-2-yl)-6-oxopyridazin-1(6H)-yl)-N-(4-(trifluoromethyl)phenyl)propanamide] | ++ (activity >150% of a CFTR amplifier with compound at concentration shown and amplifier at 3 uM) | ++ (activity >150% of a CFTR amplifier with compound at concentration shown and amplifier at 3 uM) |
| CC(C(=O)Nc1ccc(C(F)(F)F)cc1)n1nc(-c2ccsc2)ccc1=O (stereo not shown) [Compound 15, 2-(6-Oxo-3-(thiophen-3-yl)pyridazin-1(6H)-yl)-N-(4-(trifluoromethyl)phenyl)propanamide] | ++ (activity >150% of a CFTR amplifier with compound at concentration shown and amplifier at 3 uM) | + (activity <150% of a CFTR amplifier with compound at concentration shown and amplifier at 3 uM) |
| CC(C(=O)Nc1ccc(C(F)(F)F)cc1)n1nc(-c2csc(Cl)c2)ccc1=O (stereo not shown) [Compound 16, 2-[3-(5-Chlorothiophen-3-yl)-6-oxo-1,6-dihydropyridazin-1-yl]-N-[4-(trifluoromethyl)phenyl]propanamide] | ++ (activity >150% of a CFTR amplifier with compound at concentration shown and amplifier at 3 uM) | ++ (activity >150% of a CFTR amplifier with compound at concentration shown and amplifier at 3 uM) |
| CC(C(=O)Nc1ccc(C(F)(F)F)cn1)n1nc(-c2cccc(Cl)c2)ccc1=O (stereo not shown) [Compound 17, 2-(3-(3-Chlorophenyl)-6-oxopyridazin-1(6H)-yl)-N-(5-(trifluoromethyl)pyridin-2-yl)propanamide] | ++ (activity >150% of a CFTR amplifier with compound at concentration shown and amplifier at 3 uM) | ++ (activity >150% of a CFTR amplifier with compound at concentration shown and amplifier at 3 uM) |
| COc1csc(-c2ccc(=O)n(C(C)C(=O)Nc3ccc(C(F)(F)F)cc3)n2)c1 (stereo not shown) [Compound 18, 2-(3-(4-Methoxythiophen-2-yl)-6-oxopyridazin-1(6H)-yl)-N-(4-(trifluoromethyl)phenyl)propanamide] | – | + (activity <150% of a CFTR amplifier with compound at concentration shown and amplifier at 3 uM) |
| COc1cc(-c2ccc(=O)n(C(C)C(=O)Nc3ccc(C(F)(F)F)cc3)n2)ccn1 (stereo not shown) [Compound 19, 2-(3-(2-Methoxypyridin-4-yl)-6-oxopyridazin-1(6H)-yl)-N-(4-(trifluoromethyl)phenyl)propanamide] | + (activity <150% of a CFTR amplifier with compound at concentration shown and amplifier at 3 uM) | + (activity <150% of a CFTR amplifier with compound at concentration shown and amplifier at 3 uM) |
| COc1cncc(-c2ccc(=O)n(C(C)C(=O)Nc3ccc(C(F)(F)F)cc3)n2)c1 (stereo not shown) [Compound 20, 2-(3-(5-Methoxypyridin-3-yl)-6-oxopyridazin-1(6H)-yl)-N-(4-(trifluoromethyl)phenyl)propanamide] | ++ (activity >150% of a CFTR amplifier with compound at concentration shown and amplifier at 3 uM) | ++ (activity >150% of a CFTR amplifier with compound at concentration shown and amplifier at 3 uM) |
